Results published in US20060148030A1, “Nuclear receptor err y 3” (FUJISAWA PHARMACEUTICAL CO., LTD, priority 2002, published 2006).

B1: ERRγ3: novel ERRγ isoform, nuclear receptor protein of 396 amino acids (SEQ ID NO: 2) lacking part of the DNA binding domain (protein, listed as Homo sapiens)
chain: MSNKDRHIDSSCSSFIKTEPSSPASLTDSVNHHSPGGSSDASGSYSSTMNGHQNGLDSPPLYPSAPILGGSGPVRKLYDDCSSTIVEDPQTKCEYMLNSMPKRLCLVCGDIASGYHYGVASCEACKAFFKRTIQGVRLDRVRGGRQKYKRRIDAENSPYLNPQLAQPAKKPYNKIVSHLLVAEPEKIYAMPDPTVPDSDIKALTTLCDLADRELVVIIGWAKHIPGFSTLSLADQMSLLQSAWMEILILGVVYRSLSFEDELVYADDYIMDEDQSKLAGLLDLNNAILQLVKKYKSMKLEKEEFVTLKAIALANSDSMHIEDVEAVQKLQDVLHEALQDYEAGQHMEDPRRAGKMLMTLPLLRQTSTKAVQHFYNIKLEGKVPMHKLFLEMLEAKV

How the values were obtained:
ERRγ2 = details: stated as known property; cited from earlier work
PPARγ = molecular target: T1, PPARγ (Homo sapiens, UniProt P37231); assay: Reporter gene assay, ERRγ3 coexisted with PPARγ, pGVP2-PPRE1 in CV-1 cells; assay type: cell-based; details: 10^−6 M rosiglitazone, FIG. 24
T1 construct: expressed in transfected cells; host or cells: CV-1 (African green monkey kidney)
T1 sequence (P37231 1-477 isoform P37231-2): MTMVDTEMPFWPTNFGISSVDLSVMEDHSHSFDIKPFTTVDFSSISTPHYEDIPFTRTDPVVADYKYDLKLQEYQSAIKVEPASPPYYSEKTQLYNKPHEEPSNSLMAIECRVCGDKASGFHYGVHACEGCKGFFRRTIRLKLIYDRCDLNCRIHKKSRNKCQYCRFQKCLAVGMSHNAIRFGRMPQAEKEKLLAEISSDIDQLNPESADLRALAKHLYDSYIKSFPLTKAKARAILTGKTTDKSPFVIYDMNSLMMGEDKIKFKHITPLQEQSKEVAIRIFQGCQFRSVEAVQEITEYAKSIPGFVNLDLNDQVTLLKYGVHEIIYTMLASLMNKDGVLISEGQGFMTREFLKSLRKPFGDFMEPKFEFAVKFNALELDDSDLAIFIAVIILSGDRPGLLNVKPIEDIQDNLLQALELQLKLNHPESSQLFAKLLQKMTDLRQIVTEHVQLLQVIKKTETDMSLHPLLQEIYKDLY
T1 sequence (P19793 1-462 partner): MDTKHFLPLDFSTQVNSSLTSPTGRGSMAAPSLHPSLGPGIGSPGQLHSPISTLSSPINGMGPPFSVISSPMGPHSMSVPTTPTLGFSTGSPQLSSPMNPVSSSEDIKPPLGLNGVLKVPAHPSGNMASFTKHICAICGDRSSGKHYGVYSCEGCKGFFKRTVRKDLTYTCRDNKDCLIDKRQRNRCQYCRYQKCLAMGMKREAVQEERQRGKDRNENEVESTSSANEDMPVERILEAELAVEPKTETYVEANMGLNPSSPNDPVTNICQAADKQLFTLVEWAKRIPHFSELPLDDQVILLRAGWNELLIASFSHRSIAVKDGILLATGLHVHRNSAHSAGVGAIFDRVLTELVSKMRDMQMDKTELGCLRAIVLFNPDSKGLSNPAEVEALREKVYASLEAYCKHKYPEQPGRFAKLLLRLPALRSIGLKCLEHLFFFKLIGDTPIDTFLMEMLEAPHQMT
Method: Transfection was performed as follows: CV-1 cells were resuspended in DMEM supplemented with 10% fetal bovine serum, 2000 U/l of penicillin G, and 100 mg/l of streptomycin to a concentration of 2×10^5 cells/2.5 ml. This was then seeded to a 6-well plate at 2.5 ml per well, and incubated for 18-24 hours in a CO2 incubator at 37° C. and 5% CO2. 1 μg of each of the expression plasmids for the transcription factors, the luciferase reporter plasmid, and another luciferase reporter plasmid used for normalization of the measured values (pRL-TK), were dissolved in Opti-MEM (Gibco BRL), to a total of 150 μl. […] Luciferase activity was measured using the Dual-Luciferase™ Reporter Assay System (Promega). […] The protocol for measurement was as follows: 50 μl of Luciferase Assay Reagent II was added to each well, stirred for 0.3 seconds, and measured for one second. 50 μl of Stop&Glo™ Reagent was then added, stirred for 0.3 seconds, and measured for one second. The measured values for firefly luciferase activity were corrected by dividing by the value for the Renilla luciferase activity, the internal control. Average values and standard errors were calculated from triplicate samples.
The effect of ligands on the function of ERRγ3 in enhancing the transcriptional activation function of peroxisome proliferator activated receptor (PPAR) α, β, or γ was evaluated using the reporter gene assay (FIG. 24). […]

Chain of ERRγ2 (P62508 whole entry): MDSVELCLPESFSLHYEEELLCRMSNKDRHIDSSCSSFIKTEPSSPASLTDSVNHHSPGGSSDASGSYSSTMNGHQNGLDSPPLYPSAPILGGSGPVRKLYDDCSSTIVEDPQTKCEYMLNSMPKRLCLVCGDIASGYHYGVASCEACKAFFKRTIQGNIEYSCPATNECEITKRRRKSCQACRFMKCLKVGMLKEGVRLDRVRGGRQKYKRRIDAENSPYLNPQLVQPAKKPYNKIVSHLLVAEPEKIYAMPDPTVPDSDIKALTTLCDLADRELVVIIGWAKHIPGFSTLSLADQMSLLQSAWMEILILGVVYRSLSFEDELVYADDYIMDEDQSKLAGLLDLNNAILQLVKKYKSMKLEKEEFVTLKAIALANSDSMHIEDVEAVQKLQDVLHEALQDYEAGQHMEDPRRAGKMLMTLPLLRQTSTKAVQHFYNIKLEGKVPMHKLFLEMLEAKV

Molecule | binding to ERRγ2 (ERRγ2) | modifying effect on the transcriptional stimulation activity of PPARγ (PPARγ)
4-hydroxytamoxifen [reference compound] | capable of binding | 
B1 |  | did not show any significant modifying effect
